According to ChEMBL document CHEMBL3885861, “Open TG-GATES”:

Organism: Rattus norvegicus
Assay: Open TG-GATES - Regimen: Daily Repeat
Assay type: toxicity, organism-based, Sprague-Dawley
Design: regimen Daily Repeat, gender Male, age 6 weeks
Details: in vivo, po, route gavage; for APTT / Bas / Eos / Fbg / Hb / Ht / Lym / MCH / MCHC / MCV / Mono / Neu / PT / Plat / RBC / Ret / WBC: tissue Blood; for KIDNEY_L / KIDNEY_R / KIDNEY_TOTAL: tissue Kidney; for LIVER: tissue Liver; for A/G / ALP / ALT / AST / BUN / CRE / Ca / Cl / DBIL / GLC / IP / K / LDH / Na / PL / RALB / TBIL / TC / TG / TP / gamma-GTP: tissue Plasma
[1] = 0 mg/kg, 72 h, dose level Control, time 3 day
[2] = 0 mg/kg, […], dose level Control, time 7 day
[3] = 0 mg/kg, […], dose level Control, time 14 day
[4] = 0 mg/kg, […], dose level Control, time 28 day
[5] = 60 mg/kg, 72 h, dose level Low, time 3 day
[6] = 60 mg/kg, […], dose level Low, time 7 day
[7] = 60 mg/kg, […], dose level Low, time 14 day
[8] = 60 mg/kg, […], dose level Low, time 28 day

## CCOC(=O)[C@H](CCc1ccccc1)N[C@@H](C)C(=O)N1CCC[C@H]1C(=O)O
[1]
  TERMINAL_BW: 253.2 g
  APTT: 16 s
  Bas: 0%
  Eos: 1%
  Fbg: 242 mg/dL
  Hb: 13.2 g/dL
  Ht: 40.1%
  Lym: 73.6%
  MCH: 21 pg
  MCHC: 32.9%
  MCV: 63.9 fL
  Mono: 7.8%
  Neu: 17.4%
  PT: 11.8 s
  Plat: 123.1 x10_4/uL
  RBC: 627.6 x10_4/ul
  Ret: 6.6%
  WBC: 111.6 x10_2/uL
  KIDNEY_L: 1.1 g
  KIDNEY_R: 1.1 g
  KIDNEY_TOTAL: 2.2 g
  LIVER: 12.4 g
  A/G: 1.8
  ALP: 993.8 IU/L
  ALT: 38.6 IU/L
  AST: 63.4 IU/L
  BUN: 19 mg/dL
  CRE: 0.5 mg/dL
  Ca: 11 mg/dL
  Cl: 105 meq/L
  DBIL: 0.022 mg/dL
  GLC: 209.8 mg/dL
  IP: 9 mg/dL
  K: 4.7 meq/L
  LDH: 82.2 IU/L
  Na: 141.4 meq/L
  PL: 149.6 mg/dL
  RALB: 3.8 g/dL
  TBIL: 0.4 mg/dL
  TC: 81 mg/dL
  TG: 114.6 mg/dL
  TP: 5.9 g/dL
  gamma-GTP: 1.2 IU/L
[2]
  TERMINAL_BW: 279.2 g
  APTT: 16.4 s
  Bas: 0%
  Eos: 1.2%
  Fbg: 227.8 mg/dL
  Hb: 13.9 g/dL
  Ht: 41.9%
  Lym: 78.8%
  MCH: 21.4 pg
  MCHC: 33.3%
  MCV: 64.6 fL
  Mono: 6%
  Neu: 14%
  PT: 11.6 s
  Plat: 121.8 x10_4/uL
  RBC: 649.6 x10_4/ul
  Ret: 6.5%
  WBC: 122 x10_2/uL
  KIDNEY_L: 1.2 g
  KIDNEY_R: 1.2 g
  KIDNEY_TOTAL: 2.4 g
  LIVER: 14 g
  A/G: 2.1
  ALP: 778.4 IU/L
  ALT: 37.8 IU/L
  AST: 62 IU/L
  BUN: 18.2 mg/dL
  CRE: 0.5 mg/dL
  Ca: 10.7 mg/dL
  Cl: 106 meq/L
  DBIL: 0.002 mg/dL
  GLC: 207 mg/dL
  IP: 8.6 mg/dL
  K: 5 meq/L
  LDH: 89.2 IU/L
  Na: 140.2 meq/L
  PL: 157.4 mg/dL
  RALB: 4 g/dL
  TBIL: 0.4 mg/dL
  TC: 78.2 mg/dL
  TG: 130.2 mg/dL
  TP: 5.9 g/dL
  gamma-GTP: 1.6 IU/L
[3]
  TERMINAL_BW: 338.3 g
  APTT: 16.5 s
  Bas: 0%
  Eos: 1%
  Fbg: 232.8 mg/dL
  Hb: 13.9 g/dL
  Ht: 41.7%
  Lym: 79.2%
  MCH: 20.6 pg
  MCHC: 33.3%
  MCV: 61.8 fL
  Mono: 5.8%
  Neu: 13.4%
  PT: 11.4 s
  Plat: 115 x10_4/uL
  RBC: 675.8 x10_4/ul
  Ret: 4.1%
  WBC: 143.8 x10_2/uL
  KIDNEY_L: 1.3 g
  KIDNEY_R: 1.3 g
  KIDNEY_TOTAL: 2.6 g
  LIVER: 15.8 g
  A/G: 1.6
  ALP: 684 IU/L
  ALT: 31 IU/L
  AST: 58.2 IU/L
  BUN: 19.6 mg/dL
  CRE: 0.6 mg/dL
  Ca: 10.9 mg/dL
  Cl: 106.4 meq/L
  DBIL: 0 mg/dL
  GLC: 209.6 mg/dL
  IP: 8 mg/dL
  K: 4.4 meq/L
  LDH: 105.2 IU/L
  Na: 140 meq/L
  PL: 162.2 mg/dL
  RALB: 3.9 g/dL
  TBIL: 0.3 mg/dL
  TC: 77 mg/dL
  TG: 172 mg/dL
  TP: 6.2 g/dL
  gamma-GTP: 1.4 IU/L
[4]
  TERMINAL_BW: 401.8 g
  APTT: 17.7 s
  Bas: 0%
  Eos: 1.2%
  Fbg: 249 mg/dL
  Hb: 15.3 g/dL
  Ht: 46.4%
  Lym: 80%
  MCH: 19.3 pg
  MCHC: 33%
  MCV: 58.3 fL
  Mono: 6%
  Neu: 12.6%
  PT: 11.6 s
  Plat: 107.8 x10_4/uL
  RBC: 797.4 x10_4/ul
  Ret: 3.1%
  WBC: 125.5 x10_2/uL
  KIDNEY_L: 1.4 g
  KIDNEY_R: 1.4 g
  KIDNEY_TOTAL: 2.8 g
  LIVER: 16.1 g
  A/G: 1.9
  ALP: 643.2 IU/L
  ALT: 29.2 IU/L
  AST: 54.2 IU/L
  BUN: 19.2 mg/dL
  CRE: 0.7 mg/dL
  Ca: 10.7 mg/dL
  Cl: 107.2 meq/L
  DBIL: 0.036 mg/dL
  GLC: 202.6 mg/dL
  IP: 7 mg/dL
  K: 4.5 meq/L
  LDH: 61 IU/L
  Na: 140.2 meq/L
  PL: 145 mg/dL
  RALB: 4 g/dL
  TBIL: 0.3 mg/dL
  TC: 66.4 mg/dL
  TG: 128.2 mg/dL
  TP: 6.2 g/dL
  gamma-GTP: 1.4 IU/L
[5]
  TERMINAL_BW: 243.2 g
  APTT: 16.2 s
  Bas: 0%
  Eos: 0.8%
  Fbg: 233.6 mg/dL
  Hb: 13.1 g/dL
  Ht: 39.8%
  Lym: 82.6%
  MCH: 21.3 pg
  MCHC: 32.9%
  MCV: 64.8 fL
  Mono: 5.2%
  Neu: 11.4%
  PT: 11.6 s
  Plat: 124.4 x10_4/uL
  RBC: 614.6 x10_4/ul
  Ret: 5.5%
  WBC: 105.6 x10_2/uL
  KIDNEY_L: 1.1 g
  KIDNEY_R: 1.1 g
  KIDNEY_TOTAL: 2.2 g
  LIVER: 11.8 g
  A/G: 2
  ALP: 985.6 IU/L
  ALT: 32.8 IU/L
  AST: 63.2 IU/L
  BUN: 20.2 mg/dL
  CRE: 0.5 mg/dL
  Ca: 10.9 mg/dL
  Cl: 105.8 meq/L
  DBIL: 0.028 mg/dL
  GLC: 189.2 mg/dL
  IP: 8 mg/dL
  K: 5 meq/L
  LDH: 90.6 IU/L
  Na: 140.2 meq/L
  PL: 160 mg/dL
  RALB: 4 g/dL
  TBIL: 0.3 mg/dL
  TC: 81 mg/dL
  TG: 93 mg/dL
  TP: 6.1 g/dL
  gamma-GTP: 2 IU/L
[6]
  TERMINAL_BW: 259.7 g
  APTT: 15.6 s
  Bas: 0%
  Eos: 0.6%
  Fbg: 232 mg/dL
  Hb: 13.5 g/dL
  Ht: 40.7%
  Lym: 84.6%
  MCH: 20.6 pg
  MCHC: 33.2%
  MCV: 61.9 fL
  Mono: 5%
  Neu: 9.2%
  PT: 11.6 s
  Plat: 124.1 x10_4/uL
  RBC: 658.4 x10_4/ul
  Ret: 4.8%
  WBC: 134.2 x10_2/uL
  KIDNEY_L: 1.1 g
  KIDNEY_R: 1.1 g
  KIDNEY_TOTAL: 2.3 g
  LIVER: 12.2 g
  A/G: 2.1
  ALP: 880.6 IU/L
  ALT: 32.6 IU/L
  AST: 61.8 IU/L
  BUN: 21.2 mg/dL
  CRE: 0.6 mg/dL
  Ca: 10.9 mg/dL
  Cl: 104 meq/L
  DBIL: 0.002 mg/dL
  GLC: 209.2 mg/dL
  IP: 8.6 mg/dL
  K: 5 meq/L
  LDH: 116.2 IU/L
  Na: 138 meq/L
  PL: 168.4 mg/dL
  RALB: 4 g/dL
  TBIL: 0.3 mg/dL
  TC: 88.8 mg/dL
  TG: 121.2 mg/dL
  TP: 5.9 g/dL
  gamma-GTP: 1 IU/L
[7]
  TERMINAL_BW: 311.1 g
  APTT: 16.1 s
  Bas: 0%
  Eos: 1.2%
  Fbg: 247.4 mg/dL
  Hb: 14.3 g/dL
  Ht: 43%
  Lym: 76%
  MCH: 20.1 pg
  MCHC: 33.2%
  MCV: 60.7 fL
  Mono: 6.6%
  Neu: 16.2%
  PT: 11.3 s
  Plat: 118.7 x10_4/uL
  RBC: 710.6 x10_4/ul
  Ret: 3.5%
  WBC: 107.1 x10_2/uL
  KIDNEY_L: 1.3 g
  KIDNEY_R: 1.3 g
  KIDNEY_TOTAL: 2.5 g
  LIVER: 13.6 g
  A/G: 1.8
  ALP: 821.6 IU/L
  ALT: 34.4 IU/L
  AST: 65.2 IU/L
  BUN: 24.4 mg/dL
  CRE: 0.6 mg/dL
  Ca: 10.8 mg/dL
  Cl: 106 meq/L
  DBIL: 0 mg/dL
  GLC: 199.2 mg/dL
  IP: 8.4 mg/dL
  K: 5 meq/L
  LDH: 105.2 IU/L
  Na: 138.4 meq/L
  PL: 155.4 mg/dL
  RALB: 4 g/dL
  TBIL: 0.3 mg/dL
  TC: 73.2 mg/dL
  TG: 113.2 mg/dL
  TP: 6.3 g/dL
  gamma-GTP: 1.4 IU/L
[8]
  TERMINAL_BW: 389.4 g
  APTT: 16.8 s
  Bas: 0%
  Eos: 1%
  Fbg: 252.6 mg/dL
  Hb: 15.1 g/dL
  Ht: 45.4%
  Lym: 85.6%
  MCH: 19.3 pg
  MCHC: 33.3%
  MCV: 58 fL
  Mono: 4.4%
  Neu: 8.8%
  PT: 11.6 s
  Plat: 108.6 x10_4/uL
  RBC: 782.8 x10_4/ul
  Ret: 3.5%
  WBC: 132.2 x10_2/uL
  KIDNEY_L: 1.5 g
  KIDNEY_R: 1.5 g
  KIDNEY_TOTAL: 3 g
  LIVER: 16.3 g
  A/G: 1.8
  ALP: 658.6 IU/L
  ALT: 31.6 IU/L
  AST: 61.4 IU/L
  BUN: 20.8 mg/dL
  CRE: 0.6 mg/dL
  Ca: 10.8 mg/dL
  Cl: 105.8 meq/L
  DBIL: 0.046 mg/dL
  GLC: 198.6 mg/dL
  IP: 7.3 mg/dL
  K: 4.8 meq/L
  LDH: 66.4 IU/L
  Na: 137.6 meq/L
  PL: 144.4 mg/dL
  RALB: 4.1 g/dL
  TBIL: 0.3 mg/dL
  TC: 69.2 mg/dL
  TG: 90.2 mg/dL
  TP: 6.4 g/dL
  gamma-GTP: 1.2 IU/L
